# Measurements: patent US6410552B1, “Benzoether and related compositions and methods” (Ortho-McNeil Pharmaceutical, Inc., priority 2000, dated 2002)
# Molecular target: T1, calcium channel (Oryctolagus cuniculus, UniProt P15381)
# T1 construct: from tissue; host or cells: rabbit heart membranes
# Assay: Assay for Inhibition of Nitrendipine Binding (3H-nitrendipine, heart membranes)
# Details: displacement of 3H-nitrendipine (0.05-0.50 nM) from rabbit heart membranes, 90 minutes at 4° C.
# Method: Female, New Zealand white rabbits (1-2 kg) are sacrificed by cervical dislocation, and the heart is immediately removed, cleaned and chopped into small pieces. The tissue is homogenized in 5×times volume of 0.05M Hepes buffer, pH 7.4. The homogenate is centrifuged at 4000 g for 10 minutes, and the supernatant is re-centrifuged at 42,000×g for 90 minutes. The resulting membrane pellet is resuspended (0.7 ml/g weight) in 0.05M Hepes, pH 7.4 and stored at […] until used. Each tube of the binding assay contains ^3H-nitrendipine (0.05-0.50 nM), buffer, membranes (0.10 ml), and test compound in a total volume of 1.0 ml. After 90 minutes at 4° C., the bound nitrendipine is separated from the unbound by filtration on Whatman GF/C filters. After rinsing, the filters are dried and counted in a liquid scintillation counter.
# Non-specific binding of ^3H-nitrendipine (that amount bound in the presence of excess unlabelled nitrendipine) is subtracted from the total bound to obtain specifically bound radiolabeled nitrendipine. The amount of specifically bound nitrendipine in the presence of a test compound is compared to that amount bound in the absence of a compound. A percent displacement (or inhibition) can then be calculated.
# T1 sequence (P15381 whole entry, other chains not shown): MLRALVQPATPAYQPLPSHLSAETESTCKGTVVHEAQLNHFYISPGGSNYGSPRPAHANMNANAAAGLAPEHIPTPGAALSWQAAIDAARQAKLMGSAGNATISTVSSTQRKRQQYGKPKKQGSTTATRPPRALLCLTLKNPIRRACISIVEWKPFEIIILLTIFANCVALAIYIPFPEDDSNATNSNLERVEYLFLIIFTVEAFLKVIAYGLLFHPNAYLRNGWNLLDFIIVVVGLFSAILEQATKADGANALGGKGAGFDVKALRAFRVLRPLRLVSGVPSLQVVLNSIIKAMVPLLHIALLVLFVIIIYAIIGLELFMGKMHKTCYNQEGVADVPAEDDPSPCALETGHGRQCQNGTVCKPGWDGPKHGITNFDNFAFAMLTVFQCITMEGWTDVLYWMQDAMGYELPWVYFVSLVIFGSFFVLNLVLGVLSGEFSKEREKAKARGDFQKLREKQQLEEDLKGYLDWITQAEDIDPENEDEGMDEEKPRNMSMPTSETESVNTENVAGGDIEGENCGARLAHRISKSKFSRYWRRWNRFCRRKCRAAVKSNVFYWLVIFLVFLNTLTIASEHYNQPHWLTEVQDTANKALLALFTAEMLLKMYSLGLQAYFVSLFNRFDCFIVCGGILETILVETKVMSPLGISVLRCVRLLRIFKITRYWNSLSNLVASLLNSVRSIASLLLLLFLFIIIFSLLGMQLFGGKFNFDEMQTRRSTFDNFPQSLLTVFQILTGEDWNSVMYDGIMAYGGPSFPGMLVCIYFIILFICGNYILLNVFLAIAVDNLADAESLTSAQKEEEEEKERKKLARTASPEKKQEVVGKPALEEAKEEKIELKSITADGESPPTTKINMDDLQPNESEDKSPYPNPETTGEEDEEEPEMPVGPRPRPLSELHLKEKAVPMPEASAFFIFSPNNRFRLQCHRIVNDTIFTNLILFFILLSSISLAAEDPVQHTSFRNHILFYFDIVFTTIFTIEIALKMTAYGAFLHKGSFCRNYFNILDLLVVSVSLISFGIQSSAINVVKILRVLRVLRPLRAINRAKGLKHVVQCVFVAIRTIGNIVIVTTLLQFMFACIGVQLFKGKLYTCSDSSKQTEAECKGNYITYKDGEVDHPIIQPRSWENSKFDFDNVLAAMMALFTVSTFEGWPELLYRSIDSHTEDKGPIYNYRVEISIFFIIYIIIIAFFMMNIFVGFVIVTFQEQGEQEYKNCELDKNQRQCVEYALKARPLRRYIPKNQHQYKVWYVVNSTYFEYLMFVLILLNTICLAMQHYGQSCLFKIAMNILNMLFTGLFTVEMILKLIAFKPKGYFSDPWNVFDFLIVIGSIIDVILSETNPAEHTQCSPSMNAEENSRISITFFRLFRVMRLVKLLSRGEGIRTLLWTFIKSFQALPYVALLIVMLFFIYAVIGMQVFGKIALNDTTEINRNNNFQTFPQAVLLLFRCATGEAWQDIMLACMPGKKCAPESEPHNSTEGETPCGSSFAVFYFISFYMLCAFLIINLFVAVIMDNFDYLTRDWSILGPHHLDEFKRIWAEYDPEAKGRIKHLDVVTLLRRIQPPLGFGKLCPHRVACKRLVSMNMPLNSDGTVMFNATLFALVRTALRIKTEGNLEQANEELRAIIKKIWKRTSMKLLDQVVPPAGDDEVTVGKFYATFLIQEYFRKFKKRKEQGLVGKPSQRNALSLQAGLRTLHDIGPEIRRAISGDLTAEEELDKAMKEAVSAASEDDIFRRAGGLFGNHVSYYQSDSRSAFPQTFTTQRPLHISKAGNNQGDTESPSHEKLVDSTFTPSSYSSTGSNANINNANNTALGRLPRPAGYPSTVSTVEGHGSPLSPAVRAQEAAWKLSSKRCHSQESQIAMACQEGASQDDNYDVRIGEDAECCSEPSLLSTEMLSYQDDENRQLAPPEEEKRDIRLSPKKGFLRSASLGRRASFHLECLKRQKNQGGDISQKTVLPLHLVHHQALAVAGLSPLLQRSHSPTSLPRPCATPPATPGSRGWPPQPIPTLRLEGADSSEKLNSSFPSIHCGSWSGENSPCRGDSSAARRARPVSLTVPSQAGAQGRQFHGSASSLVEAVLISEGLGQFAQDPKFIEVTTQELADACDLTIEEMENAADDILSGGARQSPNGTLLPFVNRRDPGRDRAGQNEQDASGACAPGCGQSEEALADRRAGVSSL
# T1 sequence (P13806 27-960 partner limits assumed, other chains not shown): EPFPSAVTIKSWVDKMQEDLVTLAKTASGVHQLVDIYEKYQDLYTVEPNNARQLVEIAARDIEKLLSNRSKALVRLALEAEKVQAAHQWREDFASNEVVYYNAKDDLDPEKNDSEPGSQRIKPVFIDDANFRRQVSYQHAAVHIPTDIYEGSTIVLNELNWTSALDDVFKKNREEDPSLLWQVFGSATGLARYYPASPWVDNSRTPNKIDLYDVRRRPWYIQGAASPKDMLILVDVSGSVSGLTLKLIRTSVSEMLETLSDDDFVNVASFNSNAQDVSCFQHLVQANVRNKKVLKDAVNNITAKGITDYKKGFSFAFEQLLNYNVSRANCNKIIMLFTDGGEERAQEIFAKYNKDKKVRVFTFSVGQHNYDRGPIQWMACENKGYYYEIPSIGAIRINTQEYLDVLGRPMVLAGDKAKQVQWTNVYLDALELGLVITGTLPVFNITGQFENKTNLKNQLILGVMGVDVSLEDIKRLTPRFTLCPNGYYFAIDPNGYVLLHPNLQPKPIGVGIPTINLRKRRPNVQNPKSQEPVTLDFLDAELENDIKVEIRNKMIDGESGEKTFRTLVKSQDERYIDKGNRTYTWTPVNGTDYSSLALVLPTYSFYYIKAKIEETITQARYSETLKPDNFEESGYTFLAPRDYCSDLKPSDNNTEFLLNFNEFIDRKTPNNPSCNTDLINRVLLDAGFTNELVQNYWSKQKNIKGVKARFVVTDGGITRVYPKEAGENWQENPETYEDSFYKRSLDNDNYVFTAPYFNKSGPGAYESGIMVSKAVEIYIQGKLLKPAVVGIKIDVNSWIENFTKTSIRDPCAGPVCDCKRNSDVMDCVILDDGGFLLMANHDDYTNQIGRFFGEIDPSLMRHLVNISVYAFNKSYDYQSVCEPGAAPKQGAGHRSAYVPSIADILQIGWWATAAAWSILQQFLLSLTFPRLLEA
# T1 sequence (P13806 961-1106 partner limits assumed, other chains not shown): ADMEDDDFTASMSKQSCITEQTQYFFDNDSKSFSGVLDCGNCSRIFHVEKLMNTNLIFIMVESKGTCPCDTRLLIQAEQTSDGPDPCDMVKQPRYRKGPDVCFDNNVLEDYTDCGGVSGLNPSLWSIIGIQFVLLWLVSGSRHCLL
row,SMILES,IC50 [nM]
1,"COC(=O)C1=C(C)NC2=C(C1c1ccccc1Cl)S(=O)(=O)c1ccccc1OC2 (stereo not shown) [Compound 1, 1H-[1,5]Benzoxathiepino[3,4-b]pyridine-3-carboxylic acid, 4-(2-chlorophenyl)-4,11-dihydro-2-methyl-, methyl ester, 5,5-dioxide]",61
2,"CC1=C(C(=O)OCCN(C)Cc2ccccc2)C(c2ccccc2Cl)C2=C(COc3ccccc3S2(=O)=O)N1 (stereo not shown) [Compound 2, 1H-[1,5]Benzoxathiepino[3,4-b]pyridine-3-carboxylic acid, 4-(2-chlorophenyl)-4,11-dihydro-2-methyl-, 2-[methyl(phenylmethyl)amino]ethyl ester, 5,5-dioxide]",59
3,"CC1=C(C(=O)OCCN(C)Cc2ccccc2)C(c2cccc(Cl)c2)C2=C(COc3ccccc3S2(=O)=O)N1 (stereo not shown) [Compound 5, 1H-[1,5]Benzoxathiepino[3,4-b]pyridine-3-carboxylic acid, 4-(3-chlorophenyl)-4,11-dihydro-2-methyl-, 2-[methyl(phenylmethyl)amino]ethyl ester, 5,5-dioxide]",109

# Molecules with a lower IC50, results first:
row,IC50 [nM],SMILES
1,33,"COC(=O)C1=C(C)NC2=C(C1c1cccc([N+](=O)[O-])c1)S(=O)(=O)c1ccccc1OC2 (stereo not shown) [Compound 3, 1H-[1,5]Benzoxathiepino[3,4-b]pyridine-3-carboxylic acid, 4,11-dihydro-2-methyl-4-(3-nitrophenyl)-, methyl ester, 5,5-dioxide]"
2,45,"CC1=C(C(=O)OCCN(C)Cc2ccccc2)C(c2cccc([N+](=O)[O-])c2)C2=C(COc3ccccc3S2(=O)=O)N1 (stereo not shown) [Compound 4, 1H-[1,5]Benzoxathiepino[3,4-b]pyridine-3-carboxylic acid, 4,11-dihydro-2-methyl-4-(3-nitrophenyl)-, 2-[methyl(phenylmethyl)amino]ethyl ester, 5,5-dioxide]"
3,21,"CC1=C(C(=O)OCCN(C)Cc2ccccc2)C(c2cccc(Cl)c2Cl)C2=C(COc3ccccc3S2(=O)=O)N1 (stereo not shown) [Compound 6, 1H-[1,5]Benzoxathiepino[3,4-b]pyridine-3-carboxylic acid, 4-(2,3-dichlorophenyl)4,11-dihydro-2-methyl-, 2-[methyl(phenylmethyl)amino]ethyl ester, 5,5-dioxide]"
4,47,"CC1=C(C(=O)OCCN(C)Cc2ccccc2)C(c2c(F)cccc2Cl)C2=C(COc3ccccc3S2(=O)=O)N1 (stereo not shown) [Compound 7, 1H-[1,5]Benzoxathiepino[3,4-b]pyridine-3-carboxylic acid, 4-(2-chloro-6-fluorophenyl)-4,11-dihydro-2-methyl-, 2-[methyl(phenylmethyl)amino]ethyl ester, 5,5-dioxide]"
